This note sets out measurements from ChEMBL document CHEMBL1131112, “Matrix metalloproteinase inhibitors: a structure-activity study” (J Med Chem, 1998).

As a reminder, the Ki is the equilibrium dissociation constant of an inhibitor or competing ligand from its target. A high value points to lower affinity.

Test [1] concerns the target Matrix metalloproteinase-9 (Homo sapiens, UniProt P14780).
Description: The compound was tested for its binding affinity towards 92 kDa gelatinase (Matrix metalloprotease-9)
Test [2] addresses 72 kDa type IV collagenase (Homo sapiens, UniProt P08253).
Description: Binding affinity towards 72 kDa gelatinase (Matrix metalloprotease-2)
The target in another test is Neutrophil collagenase (Homo sapiens, UniProt P22894).
Sequence of Neutrophil collagenase (P22894 whole entry): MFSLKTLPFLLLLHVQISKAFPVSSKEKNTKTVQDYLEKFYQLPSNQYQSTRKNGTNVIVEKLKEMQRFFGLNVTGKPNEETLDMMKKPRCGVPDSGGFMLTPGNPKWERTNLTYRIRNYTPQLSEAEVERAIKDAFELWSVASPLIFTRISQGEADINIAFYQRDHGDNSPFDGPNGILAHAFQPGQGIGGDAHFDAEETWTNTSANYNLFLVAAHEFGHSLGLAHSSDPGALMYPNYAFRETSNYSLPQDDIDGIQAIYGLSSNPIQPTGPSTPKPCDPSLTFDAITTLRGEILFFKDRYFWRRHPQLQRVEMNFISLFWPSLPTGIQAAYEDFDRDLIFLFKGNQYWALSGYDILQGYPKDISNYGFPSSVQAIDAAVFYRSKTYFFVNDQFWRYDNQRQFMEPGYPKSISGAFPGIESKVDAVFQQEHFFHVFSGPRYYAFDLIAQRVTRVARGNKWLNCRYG

Sequence of Matrix metalloproteinase-9 (P14780 whole entry): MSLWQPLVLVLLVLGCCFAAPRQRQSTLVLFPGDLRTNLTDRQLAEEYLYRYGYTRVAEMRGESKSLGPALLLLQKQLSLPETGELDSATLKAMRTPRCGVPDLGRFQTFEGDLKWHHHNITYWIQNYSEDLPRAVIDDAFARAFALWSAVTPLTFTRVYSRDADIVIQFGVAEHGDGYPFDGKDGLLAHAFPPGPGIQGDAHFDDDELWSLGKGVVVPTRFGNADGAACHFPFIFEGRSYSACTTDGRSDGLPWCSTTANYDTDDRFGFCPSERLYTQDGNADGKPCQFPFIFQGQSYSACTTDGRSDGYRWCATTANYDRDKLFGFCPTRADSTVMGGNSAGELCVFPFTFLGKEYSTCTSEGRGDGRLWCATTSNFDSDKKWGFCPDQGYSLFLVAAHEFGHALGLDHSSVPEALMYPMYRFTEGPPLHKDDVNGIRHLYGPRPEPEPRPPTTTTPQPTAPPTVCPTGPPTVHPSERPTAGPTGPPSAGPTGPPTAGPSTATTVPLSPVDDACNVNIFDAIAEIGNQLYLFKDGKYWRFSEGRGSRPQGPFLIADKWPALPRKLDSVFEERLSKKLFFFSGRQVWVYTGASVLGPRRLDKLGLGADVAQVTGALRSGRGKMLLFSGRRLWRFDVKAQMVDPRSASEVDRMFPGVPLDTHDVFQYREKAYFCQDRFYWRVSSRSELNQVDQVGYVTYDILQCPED
Sequence of 72 kDa type IV collagenase (P08253 whole entry): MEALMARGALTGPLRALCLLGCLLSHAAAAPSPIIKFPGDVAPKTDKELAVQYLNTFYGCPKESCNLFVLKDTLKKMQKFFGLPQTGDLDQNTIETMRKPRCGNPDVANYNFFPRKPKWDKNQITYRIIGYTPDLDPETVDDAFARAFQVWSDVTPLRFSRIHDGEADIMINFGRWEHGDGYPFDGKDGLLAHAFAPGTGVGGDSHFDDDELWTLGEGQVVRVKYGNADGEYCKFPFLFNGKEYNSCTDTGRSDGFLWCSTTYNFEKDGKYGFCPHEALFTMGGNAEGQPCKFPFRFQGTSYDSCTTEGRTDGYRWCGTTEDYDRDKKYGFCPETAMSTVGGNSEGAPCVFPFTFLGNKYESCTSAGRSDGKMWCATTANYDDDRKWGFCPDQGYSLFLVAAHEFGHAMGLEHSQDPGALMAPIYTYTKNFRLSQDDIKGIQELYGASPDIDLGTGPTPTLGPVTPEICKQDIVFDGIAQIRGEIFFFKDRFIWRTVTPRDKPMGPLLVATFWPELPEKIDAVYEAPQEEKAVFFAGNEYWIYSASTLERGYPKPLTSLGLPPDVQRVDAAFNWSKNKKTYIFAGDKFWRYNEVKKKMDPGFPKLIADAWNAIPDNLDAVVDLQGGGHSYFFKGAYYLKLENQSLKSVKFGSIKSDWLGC
Description for Neutrophil collagenase: The compound was tested for its binding affinity towards neutrophil collagenase (Matrix metalloprotease-8)

Consider `CC(C)C[C@H](CC(=O)NO)C(=O)N[C@H](Cc1ccncc1)C(=O)NCCc1ccc(O)cc1`, for which the values for the Ki (in test [1]; in test [2]; on Neutrophil collagenase) were 1.7 nM, 1.9 nM and 0.33 nM, respectively.
For `CC(C)C[C@H](CC(=O)NO)C(=O)N[C@@H](Cc1c[nH]c2ccccc12)C(=O)NCc1ccccc1`, the Ki in test [1] was 5 nM; in test [2] it was 2 nM; at Neutrophil collagenase it was 1.2 nM.
Taken in the same sequence, the figures for `CC(C)C[C@H](CC(=O)NO)C(=O)N[C@H](Cc1ccc2ccccc2c1)C(=O)N[C@@H](C)c1ccccc1` were 6.9 nM, 13 nM and 14 nM.
Taken in the same sequence, the figures for `CNC(=O)[C@@H](Cc1cccc2cccnc12)NC(=O)[C@@H](CC(=O)NO)CC(C)C` were 1.5 nM, 1.3 nM and 0.54 nM.
Taken in the same sequence, the figures for `CNC(=O)[C@H](Cc1c[nH]c2ccccc12)NC(=O)[C@@H](CC(=O)O)CC(C)C` were 100 nM, 170 nM and 17 nM.
Turning to `CNC(=O)[C@@H](Cc1ccccc1)NC(=O)[C@@H](CC(=O)NO)CC(C)C`, in test [1], the affinity corresponds to a Ki of 0.96 nM.
Regarding `CNC(=O)[C@@H](Cc1ccc(-c2ccccc2)cc1)NC(=O)[C@@H](CC(=O)NO)CC(C)C`, the inhibition constant (Ki) stood at 4.1 nM in test [1], 4 nM in test [2] and 2.4 nM on Neutrophil collagenase.
On to `CC(C)C[C@H](CC(=O)NO)C(=O)N[C@@H](Cc1c[nH]c2ccccc12)C(=O)NC1CC1`, for which the Ki in test [1] stood at 1.2 nM; in test [2], 0.88 nM; at Neutrophil collagenase, 0.34 nM.
Taken in the same sequence, the figures for `CC(C)C[C@H](CC(=O)NO)C(=O)N[C@@H](Cc1c[nH]c2ccccc12)C(=O)NC1CCCC1` were 3 nM, 2.6 nM and 1.6 nM.
The corresponding values for `CC(C)C[C@H](CC(=O)NO)C(=O)N[C@@H](Cc1c[nH]c2ccccc12)C(=O)NCCc1ccc(O)cc1` are 1.1 nM, 0.52 nM and 0.1 nM.
The corresponding values for `CC(C)C[C@H](CC(=O)NO)C(=O)N[C@@H](Cc1c[nH]c2ccccc12)C(=O)NCCc1ccccn1` are 1.4 nM, 0.73 nM and 0.49 nM.
`CNC(=O)[C@@H](Cc1csc2ccccc12)NC(=O)[C@@H](CC(=O)NO)CC(C)C`: the inhibitory constant (Ki) in test [1] was determined as 0.83 nM; in test [2], 0.44 nM; on Neutrophil collagenase, 0.45 nM.
Taken in the same sequence, the figures for `CC(C)C[C@H](CC(=O)NO)C(=O)N[C@@H](Cc1c[nH]c2ccccc12)C(=O)NCCCn1ccnc1` were 1.1 nM, 1.3 nM and 0.59 nM.
The corresponding values for `CC(C)C[C@H](CC(=O)NO)C(=O)N[C@@H](Cc1c[nH]c2ccccc12)C(=O)NCc1ccc2c(c1)OCO2` are 1.7 nM, 6.9 nM and 3.7 nM.
`CNC(=O)[C@H](Cc1c[nH]c2ccccc12)NC(=O)[C@@H](CC(=O)NOC)CC(C)C`: the Ki in test [1] was 7.9 nM; in test [2] it was 6.3 nM; at Neutrophil collagenase, 7.7 nM.
The corresponding values for `CC(C)C[C@H](CC(=O)NO)C(=O)N[C@@H](Cc1c[nH]c2ccccc12)C(=O)N1CCCCC1` are 13 nM, 19 nM and 27 nM.
Taken in the same sequence, the figures for `CC(C)C[C@H](CC(=O)NO)C(=O)N[C@@H](Cc1c[nH]c2ccccc12)C(=O)NCc1ccncc1` were 1.5 nM, 0.6 nM and 0.29 nM.
The corresponding values for `CC(C)C[C@H](CC(=O)NO)C(=O)N[C@@H](Cc1c[nH]c2ccccc12)C(=O)NCCO` are 0.76 nM, 0.44 nM and 0.35 nM.
In the case of `CC(C)C[C@H](CC(=O)NO)C(=O)N[C@@H](Cc1c[nH]c2ccccc12)C(=O)NCCCN1CCOCC1`, the Ki in test [1] is 1.9 nM; in test [2] it was 0.71 nM; on Neutrophil collagenase it was 0.39 nM.
`CCCC[C@H](CC(=O)NO)C(=O)N[C@@H](Cc1c[nH]c2ccccc12)C(=O)NC`: the Ki in test [1] worked out at 0.54 nM; in test [2], 0.57 nM; at Neutrophil collagenase, 0.3 nM.
Regarding `CC(C)C[C@H](CC(=O)NO)C(=O)N[C@H](Cc1ccncc1)C(=O)NCc1ccccc1`, the Ki was 1.5 nM in test [1] and 0.96 nM on Neutrophil collagenase.
As to `CC(C)C[C@H](CC(=O)NO)C(=O)N[C@@H](Cc1c[nH]c2ccccc12)C(=O)N1CCCC1`, the Ki was determined as 26 nM in test [1], 20 nM in test [2] and 17 nM at Neutrophil collagenase.
Take `CC(C)C[C@H](CC(=O)NO)C(=O)N[C@H](Cc1cccnc1)C(=O)NCc1ccccc1`: the values for the inhibition constant Ki (in test [1]; at Neutrophil collagenase) were 2.7 nM and 0.63 nM, respectively.
For `CC(C)C[C@H](CC(=O)NO)C(=O)N[C@@H](Cc1c[nH]c2ccccc12)C(=O)N(C)C`, the Ki in test [1] stood at 22 nM; in test [2], 19 nM; on Neutrophil collagenase, 8.5 nM.
On to `CNC(=O)[C@@H](Cc1cnc2ccccc2c1)NC(=O)[C@@H](CC(=O)NO)CC(C)C`, for which the values for the Ki (in test [1]; in test [2]; on Neutrophil collagenase) were 0.7 nM, 1 nM and 1 nM, respectively.
As to `CC(C)C[C@H](CC(=O)NO)C(=O)N[C@H](Cc1ccc(-c2ccccc2)cc1)C(=O)NCCCN1CCOCC1`, the Ki in test [1] was 3.6 nM; in test [2], 6.7 nM; at Neutrophil collagenase it was 6.8 nM.
Turning to `CC(C)C[C@H](CC(=O)NO)C(=O)N[C@H](Cc1ccc(-c2ccccc2)cc1)C(=O)N[C@@H](C)c1ccccc1`, the inhibition constant (Ki) in test [1] turned out to be 6.3 nM; in test [2], 25 nM; on Neutrophil collagenase, 13 nM.
The corresponding values for `CC(C)C[C@H](CC(=O)NO)C(=O)N[C@@H](Cc1c[nH]c2ccccc12)C(=O)NCc1cccnc1` are 0.78 nM, 0.52 nM and 0.11 nM.
The corresponding values for `CC(C)C[C@H](CC(=O)NO)C(=O)N[C@@H](Cc1c[nH]c2ccccc12)C(=O)N1CCOCC1` are 8.7 nM, 3.5 nM and 6.9 nM.
The corresponding values for `CC(C)C[C@H](CC(=O)NO)C(=O)N[C@H](Cc1cccc2ccccc12)C(=O)NCCCN1CCOCC1` are 0.58 nM, 0.59 nM and 0.3 nM.
As to `CNC(=O)[C@@H](Cc1cccc2ccccc12)NC(=O)[C@@H](CC(=O)NO)CC(C)C`, the Ki was 1.3 nM in test [1], 0.42 nM in test [2] and 0.64 nM at Neutrophil collagenase.
Taken in the same sequence, the figures for `CNC(=O)[C@@H](CC(C)C)NC(=O)[C@@H](CC(=O)NO)CC(C)C` were 2.5 nM, 1.1 nM and 0.65 nM.
Taken in the same sequence, the figures for `CNC(=O)[C@H](Cc1c[nH]c2ccccc12)NC(=O)[C@@H](CC(=O)NO)OC(C)C` were 18 nM, 42 nM and 12 nM.
Taken in the same sequence, the figures for `CC(C)C[C@H](CC(=O)NO)C(=O)N[C@@H](Cc1c[nH]c2ccccc12)C(=O)NCc1ccccn1` were 0.68 nM, 0.54 nM and 0.43 nM.
Consider `CCCCCO[C@H](CC(=O)NO)C(=O)N[C@@H](Cc1c[nH]c2ccccc12)C(=O)NC`, for which the Ki in test [1] amounted to 26 nM; in test [2], 43 nM; at Neutrophil collagenase it was 7.8 nM.
Taken in the same sequence, the figures for `CC(C)C[C@H](CC(=O)NO)C(=O)N[C@@H](Cc1c[nH]c2ccccc12)C(=O)N[C@@H](C)c1ccccc1` were 3.7 nM, 0.64 nM and 0.75 nM.
The corresponding values for `CNC(=O)[C@H](Cc1c[nH]c2ccccc12)N(C)C(=O)[C@@H](CC(=O)NO)CC(C)C` are 42 nM, 17 nM and 21 nM.
Take `CNC(=O)[C@@H](Cc1ccc2ccccc2c1)NC(=O)[C@@H](CC(=O)NO)CC(C)C`: the Ki was determined as 0.99 nM in test [1], 0.7 nM in test [2] and 1.3 nM on Neutrophil collagenase.
On to `CC(C)C[C@H](CC(=O)NO)C(=O)N[C@H](Cc1ccc(-c2ccccc2)cc1)C(=O)NCCc1ccc(O)cc1`, for which the results for the inhibitory constant (Ki) (in test [1]; in test [2]; on Neutrophil collagenase) were 6.5 nM, 8.1 nM and 13 nM, respectively.
`CCCCCNC(=O)[C@H](Cc1c[nH]c2ccccc12)NC(=O)[C@@H](CC(=O)NO)CC(C)C`: the Ki was 7.1 nM in test [1], 4.6 nM in test [2] and 6.5 nM on Neutrophil collagenase.
Regarding `CC(C)C[C@H](CC(=O)NO)C(=O)N[C@H](Cc1ccc(-c2ccccc2)cc1)C(=O)NCc1ccccc1`, the Ki in test [1] came to 3 nM; at Neutrophil collagenase, 3.6 nM.
Taken in the same sequence, the figures for `CC(C)C[C@H](CC(=O)NO)C(=O)N[C@@H](Cc1c[nH]c2ccccc12)C(=O)NCc1nccs1` were 0.9 nM and 0.56 nM.
As for `CC(C)C[C@H](CC(=O)NO)C(=O)N[C@H](Cc1ccc2ccccc2c1)C(=O)NCc1ccccc1`, the Ki in test [1] stood at 5.3 nM; in test [2], 18 nM; on Neutrophil collagenase, 7.7 nM.
Turning to `CNC(=O)[C@H](Cc1cn(C)c2ccccc12)NC(=O)[C@@H](CC(=O)NO)CC(C)C`, the Ki in test [1] worked out at 1.6 nM; at Neutrophil collagenase it was 0.66 nM.
Regarding `CC(C)C[C@H](CC(=O)NO)C(=O)N[C@@H](Cc1c[nH]c2ccccc12)C(=O)NCc1nc2ccccc2[nH]1`, the Ki in test [1] was 3 nM; in test [2], 7.3 nM; on Neutrophil collagenase, 5.2 nM.
The corresponding values for `CC(C)C[C@H](CC(=O)NO)C(=O)N[C@@H](Cc1c[nH]c2ccccc12)C(=O)NCc1ccco1` are 1.7 nM, 0.92 nM and 0.49 nM.
The corresponding values for `CNC(=O)[C@@H](Cc1ccncc1)NC(=O)[C@@H](CC(=O)NO)CC(C)C` are 2.8 nM, 0.96 nM and 1.7 nM.
As to `CC(C)C[C@H](CC(=O)NO)C(=O)N[C@@H](Cc1c[nH]c2ccccc12)C(=O)NCCNC(=O)OCc1ccccc1`, the figures for the Ki (in test [1]; at Neutrophil collagenase) were 1.1 nM and 0.94 nM, respectively.
Taken in the same sequence, the figures for `CC(C)CC(CC(=O)NO)C(=O)N[C@@H](Cc1c[nH]c2ccccc12)C(=O)NC1CCc2ccccc21` (single isomer, unassigned) were 30 nM and 24 nM.
The corresponding values for `CC(C)C[C@H](CC(=O)NO)C(=O)N[C@@H](Cc1c[nH]c2ccccc12)C(=O)NC1CCc2ccccc21` (single isomer, unassigned) are 100 nM and 130 nM.
